Several values for one entry are separate records, joined by “and”; a condition that tells them apart may be missing. Identical values can stand only once. Like-named read-outs stand apart in the source and are kept apart here.
Assays:
in vitro = conditions: African green monkey
[1] = test system: VEEV TC-83 virus expressing a luciferase reporter gene (TC-83-luc); experiment: microbe, parasite or virus in culture; assay type: cell-based, Venezuelan equine encephalitis virus
VEEV TC83 = experiment: microbe, parasite or virus in culture; assay type: cell-based; conditions: Venezuelan equine encephalitis virus, Vero, 16 h, read-out: Titre reduction (%)
[2] = test system: nuclear import of VEEV CP-GFP fusion protein; experiment: cells; assay type: cell-based; conditions: for inhibition of nuclear import of CP-GFP (FRAP, Fn(rec)max): 200 µM; for inhibition at 200 µM: Venezuelan equine encephalitis virus, HeLa, 2 h, read-out: inhibition of nuclear import of CP-GFP (FRAP, Fn(rec)max)
[3] = test system: VEEV CP nuclear accumulation; assay type: cell-based, Venezuelan equine encephalitis virus
[4] = test system: VEEV TC-83 virus expressing a luciferase reporter gene (TC-83-luc); conditions: read-out: anti-VEEV activity EC50; cited from earlier work
Vero cells [5] = conditions: cited from earlier work
Vero cells [6] = test system: Vero cells
[7] = Venezuelan equine encephalitis virus, Vero, read-out: EC50, concentration yielding 50% inhibition of viral replication
[8] = Venezuelan equine encephalitis virus, Vero, read-out: EC50, µM (cells printed ND)
[9] = read-out: EC50, concentration yielding 50% inhibition of viral replication

Structure (SMILES)	CC50 (in vitro) [µM]	SI, selectivity index (CC50/EC50) [1]	EC50 [1, 7] [µM]	inhibition at 10 µM (VEEV TC83) [%]	EC50 [1, 9]	further results
C[C@]12C[C@H](c3ccc(-c4ccccc4)cc3)C3=C4CCC(=O)C=C4CC[C@H]3[C@@H]1CC[C@@]2(O)C#C[Si](C)(C)C [Compound 53]	> 100	>20.1	5 ± 0.7	91.1 ± 5.4		
CN(C)c1ccc([C@H]2C[C@@]3(C)[C@@H](CC[C@@]3(O)C#C[Si](C)(C)C)[C@@H]3CC[C@@]4(O)CC5(CCC4=C32)OCCO5)cc1 [Compound 30]	> 100	>9.0	11.1 ± 1.9	88.4 ± 4.8		
CC(C)[Si](C#C[C@]1(O)CC[C@H]2[C@@H]3CC[C@@]4(O)CC5(CCC4=C3[C@@H](c3ccc(N(C)C)cc3)C[C@@]21C)OCCO5)(C(C)C)C(C)C [Compound 32]	> 100	22.0 ± 6.1 >100 >4.5	22	89.7 ± 4.6		
COc1ccc(C#C[C@]2(O)CC[C@H]3[C@@H]4CC[C@@]5(O)CC6(CCC5=C4[C@@H](c4ccc(N(C)C)cc4)C[C@@]32C)OCCO6)cc1 [Compound 37]	> 100			67.1 ± 12.2		inhibition of nuclear import of CP-GFP (FRAP, Fn(rec)max) [2]: did not significantly alter CP nuclear import dynamics
CC[Si](C#C[C@]1(O)CC[C@H]2[C@@H]3CCC4=CC(=O)CCC4=C3[C@@H](c3ccc(N(C)C)cc3)C[C@@]21C)(CC)CC [Compound 34]	> 100			95.8 ± 1.9		inhibition at 200 µM [2]: ~30%
CN(C)c1ccc([C@H]2C[C@@]3(C)[C@@H](CC[C@@]3(O)C#CCO)[C@@H]3CCC4=CC(=O)CCC4=C32)cc1 [Compound 11]	> 100					detectable antiviral (anti-VEEV) activity, in words [1]: abolished any detectable antiviral activity; EC50 [1, 8]: > 100 µM
CN(C)c1ccc([C@H]2C[C@@]3(C)[C@@H](CC[C@@]3(O)/C=C\CO)[C@@H]3CCC4=CC(=O)CCC4=C32)cc1 [Compound 13, Lilopristone, reference compound]	> 100					detectable antiviral (anti-VEEV) activity, in words [1]: abolished any detectable antiviral activity; EC50 [1, 8]: > 100 µM
C[C@]12C[C@H](c3ccccc3)C3=C4CCC5(C[C@]4(O)CC[C@H]3[C@@H]1CC[C@@]2(O)C#C[Si](C)(C)C)OCCO5 [Compound 45]	> 100	>38.7	2.6 ± 0.4	95.4 ± 4.1		
CN(C)c1ccc([C@H]2C[C@@]3(C)[C@@H](CC[C@@]3(O)C#C[Si](C)(C)C)[C@@H]3CCC4=CC(=O)CCC4=C32)cc1 [Compound 33]	> 100		< 10		8.49 µM and 8.5 µM	inhibition at 200 µM [2]: ~30%
CC#C[C@]1(O)CC[C@H]2[C@@H]3CCC4=CC(=O)CCC4=C3[C@@H](c3ccc(N(C)C)cc3)C[C@@]21C [Compound 1, mifepristone, reference compound]	165		19.9 ± 2.7	93.7 ± 19.6	19.9 ± 2.7 µM	nuclear accumulation of CP in infected cells (Fn/c) [3]: reduced the nuclear accumulation of CP; inhibition at 200 µM [2]: ~30%; EC50 [4]: 20 µM; CC50 (Vero cells [5]): > 100 µM
CN(C)c1ccc([C@H]2C[C@@]3(C)[C@@H](CC[C@@]3(O)C#Cc3ccccc3)[C@@H]3CCC4=CC(=O)CCC4=C32)cc1 [Compound 38]	> 100	>11.82 and 8.5 ± 1.7 >100 >11.8	8.46 ± 1.7	69.7 ± 15.4	8.5 µM	
CC(=O)O[C@]1(C(C)=O)CC[C@H]2[C@@H]3CCC4=CC(=O)CCC4=C3[C@@H](c3ccc(N(C)C)cc3)C[C@@]21C [Compound 21, Ulipristal Acetate, reference compound]	> 100	>8.67	11.5		11.5 ± 7 µM	
COc1ccc(C#C[C@]2(O)CC[C@H]3[C@@H]4CCC5=CC(=O)CCC5=C4[C@@H](c4ccc(N(C)C)cc4)C[C@@]32C)cc1 [Compound 39]	> 100		< 10	47.4 ± 21.4	5.23 µM and 5.2 µM	inhibition of nuclear import of CP-GFP (FRAP, Fn(rec)max) [2]: did not significantly alter CP nuclear import dynamics
C/C=C\[C@]1(O)CC[C@H]2[C@@H]3CCC4=CC(=O)CCC4=C3[C@@H](c3ccc(N(C)C)cc3)C[C@@]21C [Compound 7, Aglepristone, reference compound]					25.3 µM	CC50 (Vero cells [6]): > 100 µM
CC#C[C@]1(O)CC[C@H]2[C@@H]3CCC4=CC(=O)CCC4=C3[C@@H](c3ccc(NC)cc3)C[C@@]21C [Compound 6, Desmethyl-mifepristone, reference compound]						detectable antiviral (anti-VEEV) activity, in words [1]: eliminated any detectable antiviral activity
CC[Si](C#C[C@]1(O)CC[C@H]2[C@@H]3CC[C@@]4(O)CC5(CCC4=C3[C@@H](c3ccc(N(C)C)cc3)C[C@@]21C)OCCO5)(CC)CC [Compound 31]	> 100	4.7 ± 0.5 >100 >21.5	4.7	93.9 ± 3.2		
CN(C)c1ccc([C@H]2C[C@@]3(C)[C@@H](CC[C@@]3(O)C#CC(F)(F)F)[C@@H]3CCC4=CC(=O)CCC4=C32)cc1 [Compound 9, Trifluoromethylmifepristone]	> 100		17.8 ± 1.7			detectable antiviral (anti-VEEV) activity, in words [1]: did not significantly alter the activity of the analogue from 1
CN(C)c1ccc([C@H]2C[C@@]3(C)[C@@H](CC[C@@]3(O)C#Cc3ccccc3)[C@@H]3CC[C@@]4(O)CC5(CCC4=C32)OCCO5)cc1 [Compound 36]	> 100	7.2 ± 2.3 >100 >14.0	7.2	53.9 ± 18.8		
CN(C)c1cccc([C@H]2C[C@@]3(C)[C@@H](CC[C@@]3(O)C#C[Si](C)(C)C)[C@@H]3CCC4=CC(=O)CCC4=C32)c1 [Compound 54]	> 100	>16.7	6 ± 1.1	94.1 ± 7.1		
CN(C)c1ccc([C@H]2C[C@@]3(C)[C@@H](CC[C@@]3(O)C#CC(F)(F)F)[C@@H]3CC[C@@]4(O)CC5(CCC4=C32)OCCO5)cc1 [Compound 8]	> 100	27.6 ± 5.1 >100 >3.6	27.6			
CC(C)[Si](C#C[C@]1(O)CC[C@H]2[C@@H]3CCC4=CC(=O)CCC4=C3[C@@H](c3ccc(N(C)C)cc3)C[C@@]21C)(C(C)C)C(C)C [Compound 35]	> 100		16.3 ± 4.7		16.3 µM	
COc1ccc(C2C[C@@]3(C)[C@@H](CC[C@@]3(O)C#C[Si](C)(C)C)[C@@H]3CCC4=CC(=O)CCC4=C23)cc1 (stereo partly drawn) [Compound 51]	> 100	>4.5	22.5 ± 2.4			
